Five compounds from US11752077B2, “Oily moisturizer and topical skin composition containing same” (The Nisshin OilliO Group, Ltd., priority 2017, dated 2023) can be followed below.

Assay [1] relates to stratum corneum moisture content of the skin (forearm). Put plainly: Evaluation test of moisture retention effect upon single application (esterified products, oils, glycerol applied neat). The assay is classed as in vivo, human. How it is done: In the present invention, the moisture retention effect of the esterified product, namely the improvement effect on the moisture retention function of the skin, was evaluated based on the change in the stratum corneum moisture content of the skin before and after application of the esterified product. Measurement of the stratum corneum moisture content was performed using a stratum corneum moisture content measuring device (device name: SKICON-200), manufactured by IBS Co., Ltd. This stratum corneum moisture content measuring device is a device that is widely used for measuring the moisturestate of the stratum corneum, and is a device that measures the electrical conductivity (μS) of the stratum corneum. The larger the skin moisture content, the higher the electrical conductivity of the stratum corneum becomes. Accordingly, the electrical conductivity (μS) measured using the stratum corneum moisture content measuring device was deemed to indicate the stratum corneum moisture content. The skin moisture retention effect of each test sample was evaluated by applying the test sample directly to washed skin, and then measuring the change in the skin stratum corneum moisture content after wiping the test sample off the skin using a cotton swab soaked in hexane. The skin stratum corneum moisture content measurement test was conducted on a plurality of panelists in the season from autumn to spring when the skin is prone to dryness. Further, in order to remove the effects of room temperature and humidity on the measurement results, the tests were performed in a room in which the room temperature had been adjusted to 18 to 22° C. and the humidity had been adjusted to 40 to 55% RH. Specifically, first, the forearm of the person was washed with soap, and the person was then held for 30 minutes in a room in which the room temperature and the humidity had been controlled within the above ranges to acclimatize the skin of the forearm to the measurement environment, thus completing preparations for the initial conditions for measurement. […] Subsequently, 40 μL of the test sample being evaluated was applied uniformly to the square measurement region of the forearm. Sixty minutes after the application, a cotton swab that had been immersed in hexane was used to wipe off the test sample, and 30 minutes after the test sample had been wiped off, the stratum corneum moisture content of the wiped region of the skin (the stratum corneum moisture content upon test completion) was measured. Further, when evaluating the moisture retention effect of the test sample, in order to consider and subtract the change in the state of the skin during the measurement period, the stratum corneum moisture content of a portion of the skin to which the sample had not been applied was also measured prior to test commencement and upon test completion, and the change in the stratum corneum moisture content of this uncoated portion was calculated. A moisture retention effect value (μS) was determined from the measured values for the skin stratum corneum moisture content based on the formulas below. The moisture retention effect value (μS) for each test sample was calculated as the average value for the moisture retention effect values (μS) across five panelists. […] Based on the moisture retention effect value (μS) for each test sample, the moisture retention effect of each test sample was evaluated using the criteria in Table 43. […] Using various commercially available oils and glycerol, the <Evaluation of moisture retention upon single application> described above was conducted to ascertain the moisture retention effect. […] The glycerol of Comparative Example 21 is a typical aqueous moisturizer, and is widely used as a moisturizer. […] With the exception of changing the removal solvent from hexane to water, the evaluation conditions were the same as those described above in the <Evaluation of moisture retention upon single application>.

Assay [2] shares this test system. The assay is described as above. The assay is classed as in vivo, human. The settings on record: 60 minutes after application, glycerol still applied to the skin surface, prior to removal using water.
[3] abbreviates: single application of commercially available oil or glycerol to skin, measured after removal (hexane swab; water swab for glycerol).
Where [4] appears, read: single application of commercially available oil or glycerol, class from moisture retention effect value.
[5] abbreviates: esterified product applied neat, 40 μL on 3 cm x 3 cm forearm region, wiped off with hexane after 60 minutes, measured 30 minutes later, average of five panelists.
[6] abbreviates: esterified product applied neat, 40 μL on forearm, wiped off with hexane after 60 minutes, measured 30 minutes later, five panelists.

As for `CCCCC(CC)C(=O)OCC(COC(=O)C(CC)CCCC)OC(=O)C(CC)CCCC` (centres unmarked) [Comparative Example 14, glyceryl tri(2-ethylhexanoate)], the “Moisture retention effect value” in assay [1] (setting [3]) was found to be 32 μS. Also, in assay [1] (setting [4]), the “Moisture retention evaluation result” value is recorded as “e1 (less than 40)”.

Take `OCC(O)CO` [Comparative Example 21, glycerol]: the “Moisture retention effect value” in assay [1] (removal after 60 minutes with cotton swab immersed in water rather than hexane, measured 30 minutes later) is on record as 8 μS; in assay [1] (setting [3]), 8 μS. The “Moisture retention evaluation result” value in assay [1] (setting [4]) is “e1 (less than 40)”. Further, in assay [2], the “increase in the electrical conductivity that corresponds with the moisture retention effect value” came out at 477 μS.

For `CC(C)CCCCCCCCCCCCCCC(=O)OCC(C)C` [Comparative Example 9, isobutyl isostearate], in assay [1] (setting [5]), the “Moisture retention effect value” was 47 μS.

For the compound “caprylate ester of ditrimethylolpropane [Example 2]”, in assay [1] (setting [5]), the “Moisture retention effect value” stood at 87 μS. For the same compound, the “Moisture retention evaluation result” value in assay [1] (setting [6]) is listed as “a1 (70 or greater)”.

Take “caprate ester of ditrimethylolpropane [Example 3]”: the “Moisture retention effect value” in assay [1] (setting [5]) is reported as 70 μS. For the same compound, in assay [1] (setting [6]), the “Moisture retention evaluation result” value is “a1 (70 or greater)”.
